Source: US20080026067A1, “Method for Increasing Specific Surface Area of Slightly Soluble Drug” (priority 2004, published 2008)
One block for each compound: values may come before it.

Experiments:
Type in all cases: physicochemical
[1] = Specific surface area of the powder, multipoint BET method
Description: A specific surface area of a powder of the compound A obtained by the above-described methods and the following Examples can be measured by known method, for example, multipoint BET method.
A specific surface area of the compound A was adjusted to give the crystalline powders with different specific surface area by the following method. As well, the measurement of specific surface area was performed by multipoint BET method.

[2] = Dissolution test (Japanese Pharmacopoeia method 2, Paddle method); details: pH 6.8 McIlvaine buffer, 2.0% (w/v) sodium lauryl sulfate, 900 mL, 37°C, 50 rpm, 30 mg
Description: In the present invention, the dissolution rate in the dissolution test, according to dissolution test method 2 (Paddle method) of general test in the Japanese Pharmacopoeia, is the value that the method is performed on condition that 50 rounds per minute in pH6.8 McIlvaine buffer solution including 2.0% (w/v) sodium lauryl sulfate. More detail, it includes the method described in the following method or the method pursuant thereof and so on.
The powder of compound A prepared in the above described Preparation Example 4 (specific surface area=12.51 m^2/g) and Preparation Example 6 (specific surface area=5.46 m^2/g) was sieved by 60 mesh sieve (250 μm) respectively and the sieved material was weighed out 30 mg and then poured into the test solution. The dissolution test was performed under the below described condition of the dissolution test. However, the compound A was suspended with about 2 mL test solution and then the compound A poured into the test solution. The eluate 10 mL obtained at each sampling time was filtrated with membrane filter having 0.45 μm pore diameter. The first filtrate 2 mL was removed and the rest of filtrate was as the solution of test material. The compound A prepared in Preparation Example 12 was precisely weighed out about 33.3 mg and it was dissolved by adding methanol to adjust 100 mL. Among this solution, 5 mL was weighed out and it was added by test solution to adjust 50 mL. It was made as the standard solution (0.0333 mg/mL) that […] of the compound A was dissolved. The absorbance of the solution of test material and standard solution in wavelength 278 nm was measured by the measurement of ultraviolet visible absorbance respectively and according to the below formula, the dissolution rate was found.
The Dissolution Test Condition:
• Apparatus: The Japanese Pharmacopoeia, general test, dissolution test method 2 (Paddle method), • Test solution; McIlvaine buffer solution containing of 2.0% (w/v) sodium lauryl sulfate, pH 6.8 • Test solution volume: 900 mL • Temperature: 37±0.5° C. • Rotation speed: 50 rotations per minute • Sampling volume of eluate: 10 mL • Sampling time: 5, 10, 15, 30, 45, 60 and 90 minutes. [formula] [formula] • W: The volume of compound A containing of standard solution (33.3 mg) • t: The number of sampling • C: The volume of compound A poured into the test solution (30 mg) • Ct: The concentration of compound A in the solution of test material at t times sampling • ΣCn: The sum of the concentration of compound A in the solution of test material from n=1 to t−1 • At: The absorbance of the solution of test material • As: The average of absorbance of the […] of repeated measurement at three times • V: The volume of the test solution (900 mL) • v: The sampling volume of the eluate (10 mL)

[3] = Measurement of bulk density
Description: A bulk density of a powder of the compound A is preferably in the range of about 0.05 to about 0.3 g/cm^3, and more preferably in the range of about 0.05 to about 0.2 g/cm^3. A bulk density can be measured by known method. It includes, for example, the method that about 3 g sample is precisely weighed, it is put into dried 50 mL graduated cylinder (scale: by 0.1 mL) without consolidation, it reads to minimum unit of scale and value that the weight (g) of particulate is divided by the volume (cm^3) of particulate is assumed bulk density (g/cm^3), and method described in the following Examples and so on.
About 3 g of compound A is precisely weighed, it is put into dried 50 mL graduated cylinder (scale: by 0.1 mL) without consolidation, it reads to minimum unit of scale. The value that the weight (g) of particulate is divided by the volume (cm^3) of particulate is assumed bulk density (g/cm^3). As a result, the bulk density of the powder of compound A prepared in Adjustment Example 4(3) was 0.18 g/cm^3 (non-crushing composition) and […] (crushing composition). The bulk density of compound A prepared in Adjustment Example 4(4) was 0.18 g/cm^3 (non-crushing composition) and 0.08 g/cm^3 (crushing composition).

[4] = Measurement of tap density; details: tapped 3 minutes at 60 times/minute
Description: A tap density of a powder of the compound A is preferably in the range of about 0.1 to about 0.4 g/cm^3, and more preferably in the range of about 0.1 to about 0.3 g/cm^3. A tap density can be measured by known method. It includes, for example, the method that about 3 g sample is precisely weighed, it is put into dried 50 mL graduated cylinder (scale: by 0.1 mL) without consolidation, the graduated cylinder is set on tapping machine for tap density, then it is tapped for 3 minutes at 60 times/minute, final tap density is found, and value that the weight (g) of particulate is divided by final tap density (cm^3) of particulate is assumed tap density (g/cm^3), and method described in the following Examples and so on.
About 3 g of the powder of compound A is precisely weighed, it is put into dried 50 mL graduated cylinder (scale: by 0.1 mL) without consolidation, the graduated cylinder is set on tapping machine for tap density, then it is tapped for 3 minutes at 60 times/minute, final tap density is found. The value that the weight (g) of particulate is divided by final bulk density (cm^3) of particulate is assumed tap density (g/cm^3). As a result, the tap density of the powder of compound A prepared in Adjustment Example 4(3) was 0.28 g/cm^3 (non-crushing composition) and 0.13 g/cm^3 (crushing composition). The tap density of tie powder of compound A prepared in Adjustment Example 4(4) was 0.23 g/cm^3 (non-crushing composition) and 0.16 g/cm^3 (crushing composition).[

[5] = Accelerated test (storage stability: purity by HPLC, degree of moisture by Karl Fisher); details: for Degree of moisture (%) / Purity (%): crushing composition
Description: 1 g of the powder of compound A was poured into the two-lay plastic bag and closed firmly with banding band. This was poured into miniature fiber dram and then this was preserved in the stability tester under the condition for 6 months, at 40° C., at 75% relative humidity. And then, the purity (quantitative value) and the degree of moisture (%) of the powder of compound A were measured. The measurement of the degree of moisture was performed by known method: the moisture vaporization method/Karl Fisher electrometrical titration method. The measurement of purity was performed by high performance liquid chromatography (HPLC).
About 0.04 mg/mL N,N-dimethylformamide/acetontirile (3/7) solution of reference material and measurement sample of compound A was prepared. In this case, the concentration of the solutions was precisely found. These solutions was set under the below test condition and the purity of measurement sample was calculated from the obtained area value of the peak.
• The detector: ultraviolet absorptiometer (measurement wavelength: 278 nm), • The column: YMC-Pack ODS-A-302 (inside diameter 4.6 mm, length 15 cm), • The mobile phase: acetonitrile/5 mmol/L sodium acetate buffer (It was prepared to pH 4.5 using acetate.)/2-propanol mixture (5/4/1), • The flow: The retention time of the compound A was prepared to be about 12 minutes (about 1.0 mL/min), • The column temperature: the constant temperature in the vicinity of 40° C. • The injection volume: 20 μL.

[6] = crushing composition (jet mill crushed)
[7] = 6 months at 40°C, 75% relative humidity
[8] = over 6 months at 40°C, 75% relative humidity

Structure (SMILES): Cc1ccc(-c2nc(CCOc3cccc4c3CCC=C4CCC(=O)O)c(C)o2)cc1 [Adjustment Example 6, 3-(5-{2-[5-methyl-2-(4-methylphenyl)-1,3-oxazol-4-yl]ethoxy}-3,4-dihydronaphthalen-1-yl)propanoic acid]
- specific surface area ([1]; powder as obtained): 5.46 m^2/g
- Dissolution rate (%) ([2]; 0 minutes): 0.00%
- Dissolution rate (%) ([2]; 5 minutes): 32.3%
- Dissolution rate (%) ([2]; 10 minutes): 41.7%
- Dissolution rate (%) ([2]; 15 minutes): 48.0%
- Dissolution rate (%) ([2]; 30 minutes): 58.5%
- Dissolution rate (%) ([2]; 45 minutes): 64.3%
- Dissolution rate (%) ([2]; 60 minutes): 68.0%

Structure (SMILES): Cc1ccc(-c2nc(CCOc3cccc4c3CCC=C4CCC(=O)O)c(C)o2)cc1 [Adjustment Example 4, 3-(5-{2-[5-methyl-2-(4-methylphenyl)-1,3-oxazol-4-yl]ethoxy}-3,4-dihydronaphthalen-1-yl)propanoic acid]
- specific surface area ([1]; powder as obtained): 12.51 m^2/g
- Dissolution rate (%) ([2]; 0 minutes): 0.00%
- Dissolution rate (%) ([2]; 5 minutes): 65.46%
- Dissolution rate (%) ([2]; 10 minutes): 76.67%
- Dissolution rate (%) ([2]; 15 minutes): 82.17%
- Dissolution rate (%) ([2]; 30 minutes): 88.95%
- Dissolution rate (%) ([2]; 45 minutes): 92.15%
- Dissolution rate (%) ([2]; 60 minutes): 94.10%
- Dissolution rate (%) ([2]; 90 minutes): 96.20%

Structure (SMILES): Cc1ccc(-c2nc(CCOc3cccc4c3CCC=C4CCC(=O)O)c(C)o2)cc1 [Adjustment Example 2, 3-(5-{2-[5-methyl-2-(4-methylphenyl)-1,3-oxazol-4-yl]ethoxy}-3,4-dihydronaphthalen-1-yl)propanoic acid]
- specific surface area ([1]; powder as obtained): 20.43 m^2/g

Structure (SMILES): Cc1ccc(-c2nc(CCOc3cccc4c3CCC=C4CCC(=O)O)c(C)o2)cc1 [Adjustment Example 1, 3-(5-{2-[5-methyl-2-(4-methylphenyl)-1,3-oxazol-4-yl]ethoxy}-3,4-dihydronaphthalen-1-yl)propanoic acid]
- specific surface area ([1]; powder as obtained): 42.24 m^2/g

Structure (SMILES): Cc1ccc(-c2nc(CCOc3cccc4c3CCC=C4CCC(=O)O)c(C)o2)cc1 [Adjustment Example 4(1), 3-(5-{2-[5-methyl-2-(4-methylphenyl)-1,3-oxazol-4-yl]ethoxy}-3,4-dihydronaphthalen-1-yl)propanoic acid]
- specific surface area ([1]; powder as obtained): 6.7 m^2/g

Structure (SMILES): Cc1ccc(-c2nc(CCOc3cccc4c3CCC=C4CCC(=O)O)c(C)o2)cc1 [Compound A, 3-(5-{2-[5-methyl-2-(4-methylphenyl)-1,3-oxazol-4-yl]ethoxy}-3,4-dihydronaphthalen-1-yl)propanoic acid]
- specific surface area ([1]; powder as obtained): 2.4 m^2/g

Structure (SMILES): Cc1ccc(-c2nc(CCOc3cccc4c3CCC=C4CCC(=O)O)c(C)o2)cc1 [Adjustment Example 4(2), 3-(5-{2-[5-methyl-2-(4-methylphenyl)-1,3-oxazol-4-yl]ethoxy}-3,4-dihydronaphthalen-1-yl)propanoic acid]
- specific surface area ([1]; powder as obtained): 17.8 m^2/g

Further lines, results first:

- bulk density ([3]; crushing composition): 0.8 g/mL
- bulk density ([3]; non-crushing composition): 0.18 g/mL
- specific surface area [1, 6]: 12.7 m^2/g
- specific surface area ([1]; non-crushing composition): 11.0 m^2/g
- tap density ([4]; crushing composition): 0.13 g/mL
- tap density ([4]; non-crushing composition): 0.28 g/mL
Structure (SMILES): Cc1ccc(-c2nc(CCOc3cccc4c3CCC=C4CCC(=O)O)c(C)o2)cc1 [Adjustment Example 4(3), 3-(5-{2-[5-methyl-2-(4-methylphenyl)-1,3-oxazol-4-yl]ethoxy}-3,4-dihydronaphthalen-1-yl)propanoic acid]

- Degree of moisture (%) ([5]; 0 month): 0.3%
- Purity (%) ([5]; 0 month): 95.4%
- Degree of moisture (%) [5, 7]: 0.6%
- Purity (%) [5, 7]: 94.4%
- change (increase) of degree of moisture [5, 8]: 0.3%
- decrease of purity [5, 8]: 1.0%
- specific surface area [1, 6]: 20.6 m^2/g
- specific surface area ([1]; non-crushing composition): 19.6 m^2/g
Structure (SMILES): Cc1ccc(-c2nc(CCOc3cccc4c3CCC=C4CCC(=O)O)c(C)o2)cc1 [Adjustment Example 3, 3-(5-{2-[5-methyl-2-(4-methylphenyl)-1,3-oxazol-4-yl]ethoxy}-3,4-dihydronaphthalen-1-yl)propanoic acid]

- specific surface area ([1]; powder as obtained): 5.00 m^2/g
Structure (SMILES): Cc1ccc(-c2nc(CCOc3cccc4c3CCC=C4CCC(=O)O)c(C)o2)cc1 [Adjustment Example 5, 3-(5-{2-[5-methyl-2-(4-methylphenyl)-1,3-oxazol-4-yl]ethoxy}-3,4-dihydronaphthalen-1-yl)propanoic acid]
